“And” between values parts separate entries of the source, which are not always exact repeats. Equal values may be shown once. Inconclusive results and toxic doses are left out. Rule as the data show it: active = T/C of 150% or more; inactive = T/C below 125%.
System: L1210 leukemia ip in BDF1 mice, survival T/C
Assay: NCI In Vivo Anticancer Drug Screen. Data for tumor model L1210 Leukemia (intraperitoneal) in B6D2F1 (BDF1) mice
Conditions: endpoint: mean survival time, higher = longer survival
Method in brief: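 Transplantable tumor model; survival measured in treated vs vehicle control mice. Value = treated/control.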

[1] = dose: 25.0 mg/kg/injection, schedule: Q04DX002 (ip), vehicle: Klucel (hydroxypropylcellulose) (HPC)
[2] = dose: 50.0 mg/kg/injection, schedule: Q04DX002 (ip), vehicle: Klucel (hydroxypropylcellulose) (HPC)
[3] = dose: 100.0 mg/kg/injection, schedule: Q04DX002 (ip), vehicle: Klucel (hydroxypropylcellulose) (HPC)
[4] = dose: 100.0 mg/kg/injection, schedule: Q01DX001 (ip), vehicle: saline
[5] = dose: 200.0 mg/kg/injection, schedule: Q01DX001 (ip), vehicle: saline
[6] = dose: 100.0 mg/kg/injection, schedule: Q01DX009 (ip), vehicle: Klucel (hydroxypropylcellulose) (HPC)
[7] = dose: 100.0 mg/kg/injection, schedule: Q04DX003 (ip), vehicle: Klucel (hydroxypropylcellulose) (HPC)
[8] = dose: 200.0 mg/kg/injection, schedule: Q01DX009 (ip), vehicle: Klucel (hydroxypropylcellulose) (HPC)
[9] = dose: 200.0 mg/kg/injection, schedule: Q04DX003 (ip), vehicle: Klucel (hydroxypropylcellulose) (HPC)
[10] = dose: 400.0 mg/kg/injection, schedule: Q04DX003 (ip), vehicle: Klucel (hydroxypropylcellulose) (HPC)
[11] = dose: 400.0 mg/kg/injection, schedule: Q01DX009 (ip), vehicle: Klucel (hydroxypropylcellulose) (HPC)
[12] = dose: 400.0 mg/kg/injection, schedule: Q01DX001 (ip), vehicle: saline
[13] = dose: 200.0 mg/kg/injection, schedule: Q04DX002 (ip), vehicle: Klucel (hydroxypropylcellulose) (HPC)
[14] = dose: 400.0 mg/kg/injection, schedule: Q04DX002 (ip), vehicle: Klucel (hydroxypropylcellulose) (HPC)
[15] = dose: 100.0 mg/kg/injection, schedule: Q01DX001 (ip), vehicle: Klucel (hydroxypropylcellulose) (HPC)
[16] = dose: 200.0 mg/kg/injection, schedule: Q01DX001 (ip), vehicle: Klucel (hydroxypropylcellulose) (HPC)
[17] = dose: 400.0 mg/kg/injection, schedule: Q01DX001 (ip), vehicle: Klucel (hydroxypropylcellulose) (HPC)

Measured: T/C

NC(=O)C(N)Cc1ccc(O)c(O)c1 (stereo unspecified)
inactive: dose: 100.0 mg/kg/injection, schedule: Q01DX009 (ip), vehicle: saline 107 % of control | dose: 100.0 mg/kg/injection, schedule: Q04DX003 (ip), vehicle: saline 102 % of control | dose: 200.0 mg/kg/injection, schedule: Q01DX009 (ip), vehicle: saline 102 % of control | dose: 200.0 mg/kg/injection, schedule: Q04DX003 (ip), vehicle: saline 98 % of control | dose: 400.0 mg/kg/injection, schedule: Q01DX009 (ip), vehicle: saline 109 % of control | dose: 400.0 mg/kg/injection, schedule: Q04DX003 (ip), vehicle: saline 115 % of control | dose: 800.0 mg/kg/injection, schedule: Q01DX009 (ip), vehicle: saline 103 % of control and 114 % of control | dose: 1600.0 mg/kg/injection, schedule: Q01DX009 (ip), vehicle: saline 104 % of control

O=C(COc1ccccc1C(=O)O)Nc1ccccc1
inactive: [1] 114 % of control | [2] 92 % of control | [3] 96 % of control

CSc1nccc2c1ncn2C1OC(CO)C(O)C1O (stereo unspecified)
inactive: [4] 104 % of control | [5] 95 % of control

CC(C)(C)CCCC1C(=O)N(c2ccccc2)N(c2ccccc2)C1=O
inactive: dose: 50.0 mg/kg/injection, schedule: Q01DX009 (ip), vehicle: Klucel (hydroxypropylcellulose) (HPC) 110 % of control | [6] 110 % of control | [7] 106 % of control | [8] 112 % of control | [9] 96 % of control | [10] 101 % of control

CCN(CCOC(=O)Nc1cccc(C(C)=O)c1)c1ccccc1
inactive: [6] 108 % of control | [8] 104 % of control | [11] 106 % of control

CC1(C)C2CCC1(C)C(NCc1cc(Br)cc(Br)c1O)C2 (stereo unspecified)
inactive: [7] 92 % of control | [9] 97 % of control | [10] 98 % of control

CC(=O)OC1CCC2(C)C(=CCC3C2CCC2(C)C3CC3C(c4ccccc4)=NN(c4ccccc4)C32C(=O)c2ccccc2)C1 (stereo unspecified)
inactive: [1] 104 % of control | [2] 93 % of control | [3] 111 % of control

CCOC(=O)Cc1cc(=O)c2cc(C)ccc2[nH]1
inactive: [4] 90 % of control | [5] 89 % of control | [12] 90 % of control

CC(C)CCCC(C)C1CCC2C3CCC4CC(=O)CCC4(C)C3CCC12C (stereo unspecified)
inactive: dose: 12.5 mg/kg/injection, schedule: Q01DX009 (ip), vehicle: Klucel (hydroxypropylcellulose) (HPC) 104 % of control | dose: 25.0 mg/kg/injection, schedule: Q01DX009 (ip), vehicle: Klucel (hydroxypropylcellulose) (HPC) 107 % of control and 90 % of control | [6] 90 % of control | [3] 87 % of control | [13] 93 % of control | [14] 107 % of control

N=Nc1c(O)[nH]c2ccccc12
inactive: [3] 92 % of control | [13] 96 % of control | [14] 92 % of control

C1CCC2(CC1)COC1(OC2)OCC2(CCCCC2)CO1
inactive: [3] 97 % of control | [13] 101 % of control | [14] 90 % of control

O=[N+]([O-])c1ccc(/C=C/c2ccccc2)cc1
inactive: [6] 97 % of control | [7] 109 % of control | [8] 95 % of control | [9] 98 % of control | [11] 96 % of control | [10] 105 % of control

Cc1ccc(Nc2cc(=S)nc(N)[nH]2)cc1Cl
inactive: dose: 100.0 mg/kg/injection, schedule: Q01DX Z (ip), vehicle: methylcellulose (MC) 97 % of control | dose: 200.0 mg/kg/injection, schedule: Q01DX Z (ip), vehicle: methylcellulose (MC) 96 % of control

CC(C)(C)C(=O)CC(=O)C(C)(C)C.CC(C)(C)C(=O)CC(=O)C(C)(C)C.CC(C)(C)C(=O)CC(=O)C(C)(C)C.[Tb]
inactive: dose: 100.0 mg/kg/injection, schedule: Q04DX003 (ip), vehicle: saline with Tween-80 93 % of control | dose: 200.0 mg/kg/injection, schedule: Q04DX003 (ip), vehicle: saline with Tween-80 93 % of control | dose: 400.0 mg/kg/injection, schedule: Q04DX003 (ip), vehicle: saline with Tween-80 94 % of control

CC/C(=C(/Cl)c1ccccc1)c1ccccc1
inactive: [15] 98 % of control | [16] 102 % of control | [17] 100 % of control

CN(CCc1ccccc1)C(N)=S
inactive: dose: 75.0 mg/kg/injection, schedule: Q01DX001 (ip), vehicle: acetone 96 % of control

Cc1ccc(S(=O)(=O)OC2CCC(OS(=O)(=O)c3ccc(C)cc3)C3CCCCC23)cc1 (stereo unspecified)
inactive: dose: 100.0 mg/kg/injection, schedule: Q01DX001 (ip), vehicle: carboxymethylcellulose (CMC) 88 % of control | dose: 200.0 mg/kg/injection, schedule: Q01DX001 (ip), vehicle: carboxymethylcellulose (CMC) 90 % of control | dose: 400.0 mg/kg/injection, schedule: Q01DX001 (ip), vehicle: carboxymethylcellulose (CMC) 88 % of control

C=CCC(=O)O
inactive: dose: 83.0 mg/kg/injection, schedule: Q01DX Z (ip), vehicle: saline 96 % of control | dose: 125.0 mg/kg/injection, schedule: Q01DX Z (ip), vehicle: saline 90 % of control

O=P1(Cc2ccccc2)C(c2ccccc2)=C(O)CC1c1ccccc1 (stereo unspecified)
inactive: [7] 101 % of control | [9] 99 % of control | [10] 89 % of control

Clc1ccc2c(NCCN3CCCCCC3)nc(C(Cl)(Cl)Cl)nc2c1
inactive: dose: 75.0 mg/kg/injection, schedule: Q01DX001 (ip), vehicle: other 103 % of control | dose: 150.0 mg/kg/injection, schedule: Q01DX001 (ip), vehicle: other 97 % of control

COC1OC2COCOC2C(O)C1O (stereo unspecified)
inactive: dose: 25.0 mg/kg/injection, schedule: Q04DX002 (ip), vehicle: saline 93 % of control and 104 % of control | dose: 50.0 mg/kg/injection, schedule: Q04DX002 (ip), vehicle: saline 108 % of control | dose: 100.0 mg/kg/injection, schedule: Q04DX002 (ip), vehicle: saline 100 % of control [middle of 4 runs] | dose: 200.0 mg/kg/injection, schedule: Q04DX002 (ip), vehicle: saline 106 % of control and 100 % of control | dose: 400.0 mg/kg/injection, schedule: Q04DX002 (ip), vehicle: saline 103 % of control and 100 % of control

CCN(C(=O)C(F)(F)F)C(C)(C)C(SSSC(c1ccc(Cl)cc1)C(C)(C)N(CC)C(=O)C(F)(F)F)c1ccc(Cl)cc1 (stereo unspecified)
inactive: dose: 100.0 mg/kg/injection, schedule: Q01DX009 (ip), vehicle: other 94 % of control

CC(C)(C)OC(=O)C(C=O)N1C(=O)c2ccccc2C1=O (stereo unspecified)
inactive: [15] 94 % of control | dose: 100.0 mg/kg/injection, schedule: Q01DX009 (ip), vehicle: saline sonified 100 % of control | [16] 92 % of control | dose: 200.0 mg/kg/injection, schedule: Q01DX009 (ip), vehicle: saline sonified 94 % of control | [17] 100 % of control | dose: 400.0 mg/kg/injection, schedule: Q01DX009 (ip), vehicle: saline sonified 98 % of control

O=S1(=O)CCCN1c1ccccn1
inactive: dose: 100.0 mg/kg/injection, schedule: Q04DX002 (ip), vehicle: other 104 % of control | dose: 200.0 mg/kg/injection, schedule: Q04DX002 (ip), vehicle: other 89 % of control | dose: 400.0 mg/kg/injection, schedule: Q04DX002 (ip), vehicle: other 96 % of control

O=c1cccc(CCc2ccccc2)[nH]1
inactive: [4] 100 % of control | [5] 95 % of control | [12] 105 % of control

Source: PubChem BioAssay AID248 (DTP/NCI, 2004)
